Here are results for 32 molecules from US10435402B2, “Bicyclic compounds, compositions and medicinal applications thereof” (Advinus Therapeutics Limited, priority 2015, dated 2019).

Where only a bound is given, the exact number is not on record here.

T1 sequence (P51449 269-508 limits assumed): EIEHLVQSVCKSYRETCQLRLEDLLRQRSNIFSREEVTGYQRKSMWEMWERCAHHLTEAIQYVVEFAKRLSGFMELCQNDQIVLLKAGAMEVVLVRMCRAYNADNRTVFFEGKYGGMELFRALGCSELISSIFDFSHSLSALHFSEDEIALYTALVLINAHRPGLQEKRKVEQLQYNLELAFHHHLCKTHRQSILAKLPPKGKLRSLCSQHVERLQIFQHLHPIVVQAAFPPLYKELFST
T1 sequence (P04386 1-147 partner limits assumed): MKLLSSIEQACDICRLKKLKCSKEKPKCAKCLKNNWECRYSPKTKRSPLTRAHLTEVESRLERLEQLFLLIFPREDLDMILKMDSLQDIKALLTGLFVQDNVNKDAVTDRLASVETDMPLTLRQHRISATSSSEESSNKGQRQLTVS

The test has as its target T1, GAL4-DBD/RORγ-LBD (Homo sapiens, UniProt P51449).
T1 construct: expressed in transfected cells; host or cells: HEK293T
Nature of the test: RORγt transactivation reporter assay (GAL4-DBD/RORγ-LBD, luciferase read out). The format is cell-based. The note with it: HEK293T cells, GAL4-UAS luciferase reporter, overnight (18-24 hours) incubation. On the procedure:
RORγt Transactivation Reporter Assay Protocol: The inhibition of RORγt activity in cells was evaluated using a GAL4-UAS reporter system in HEK293T cells employing a luciferase read out. RORγt ligand binding domain (LBD) was cloned into the pFN26A (BIND) vector (Promega #[…]) containing yeast GAL4-DBD to form a RORγt LBD-GAL4 DBD fusion construct. This vector also contained a Renilla Luciferase reporter expressed under a SV40 promoter which was used as a control for transfection efficiency. A transcriptional reporter expression construct pGL4.35 (Promega #[…]) was used to monitor RORγt LBD-GAL4 activity. This construct contained nine repeats of GAL4 binding site/upstream activating sequence (UAS) controlling expression of a firefly luciferase reporter Luc2P. When transfected together in cells, the RORγ-LBD-DBD fusion protein drives expression of the luciferase reporter. For the assay, HEK293T cells were plated in a flat bottom 96 well plate at a density of 25,000 cells/well/100 ul of DMEM high glucose medium (Sigma D5648) containing 10% FBS and antibiotic. Cells were incubated overnight at 37 C/5% CO2. The next day, medium from the wells was removed and replaced with 30 ul of OptiMEM® (Invitrogen #31985070). 100 ng each of pBIND RORγ LBD-DBD and pGL4.35 reporter plasmids was transfected in HEK293T cells using Lipofectamine 2000 (Invitrogen #11668-019) where 10 ul of transfection complex was added to the each well. Control transfections were performed with an empty pF[…] vector and pGL4.35 vector. The transfected cells were incubated for 5 hours at 37 C/5% CO2. After incubation, 40 ul of DMEM high glucose medium without FBS, with antibiotic was added to each well. A 10 mM stock solution of test compound prepared in 100% DMSO was first diluted in DMSO and then in DMEM medium without FBS to give the required final compound concentration. Concentration of DMSO in the test compound solution was 0.4%. 20 ul of diluted compound solution was added to each well. Cells were incubated overnight (18-24 hours) at 37 C/5% CO2. The next day, luciferase assay was performed using the Dual Glo® Luciferase Assay System (Promega #E2940). Briefly, medium was removed from the wells and replaced with 40 ul 1× Passive Lysis Buffer (Promega #E1941). Plate was incubated at room temperature on a plate shaker at 1000 rpm for 40 min. After incubation, plate was centrifuged at 1000 rpm for 2 min. 20 ul of the lysate was transferred from each well to that of solid white half area 96 well plate (Costar #3693). Dual Glo® Reagent was thawed to room temperature and 20 ul was added to each well containing lysate. Plate was centrifuged at 1000 rpm/2 min and incubated at room temperature on a plate shaker at 600 rpm/25 min. Firefly luciferase signal was measured on a Tecan Safire2. After measurement, 20 ul of Dual Glo® Stop Glo® Reagent was added to each well. Plate was centrifuged at 1000 rpm/2 min and incubated at room temperature on a plate shaker at 600 rpm/25 min. Renilla luciferase signal was measured on Tecan Safire 2. IC50 values for test compounds were calculated from the normalized luciferase signal data using GraphPad Prism software.
Background: A reporter such as luciferase makes a cellular process visible.
For orientation: IC50 means the concentration needed to halve the response being measured. `O=C(O)c1ccc(-c2cc(C(=O)c3c(F)cccc3F)n3ccccc23)c(F)c1` [Example A-39, 4-[3-(2,6-difluorobenzoyl)indolizin-1-yl]-3-fluoro-benzoic acid]: the concentration for half-maximal inhibition (IC50) is below 500 nM.

Molecule `O=C(O)c1ccc(-c2cc(C(=O)c3c(Cl)cccc3Cl)n3ccccc23)cc1` [Example A-8, 4-[3-(2,6-dichlorobenzoyl)indolizin-1-yl]benzoic acid] came in with a concentration for half-maximal inhibition (IC50) below 500 nM.

`CCOC(=O)c1ccc(-c2cc(C(=O)c3c(Cl)cccc3Cl)n3cccc(F)c23)cc1` [Example A-21, ethyl 4-[3-(2,6-dichlorobenzoyl)-8-fluoro-indolizin-1-yl]benzoate] registered an IC50 below 500 nM.

“ethyl 4-[3-(2-bromo-6-methyl-benzoyl)indolizin-1-yl]benzoate [Example A-66]” came in with an IC50 below 500 nM.

The molecule `COC(=O)c1ccc(-c2c(C)c(C(=O)c3c(Cl)cccc3C(F)(F)F)n3ccccc23)c(F)c1` [Example C-8, methyl 4-[3-[2-chloro-6-(trifluoromethyl)benzoyl]-2-methyl-indolizin-1-yl]-3-fluoro-benzoate] showed an IC50 below 500 nM.

As to `CCOC(=O)c1ccc(-c2c(C)c(C(=O)c3c(Cl)ccnc3Cl)n3ccccc23)cc1` [Example C-10, ethyl 4-[3-(2,4-dichloropyridine-3-carbonyl)-2-methyl-indolizin-1-yl]benzoate], the IC50 was below 5000 nM.

Molecule `CC(C)(C)OC(=O)N1CCC=C(c2cc(C(=O)c3c(Cl)ccc(F)c3Cl)n3ccccc23)C1` [Example A-55, tert-butyl 5-[3-(2,6-dichloro-3-fluoro-benzoyl)indolizin-1-yl]-3,6-dihydro-2H-pyridine-1-carboxylate] showed an IC50 above 5000 nM.

Consider `CN(C)C(=O)c1ccc2c(-c3ccc(C(=O)O)cc3)cc(C(=O)c3c(Cl)cccc3Cl)n2c1` [Example D-2, 4-[3-(2,6-dichlorobenzoyl)-6-(dimethylcarbamoyl)indolizin-1-yl]benzoic acid], for which the half-maximal inhibitory concentration (IC50) is below 500 nM.

For `O=C(O)c1ccc(-c2cc(C(=O)c3c(Cl)cccc3Cl)n3cccc(F)c23)cc1` [Example A-23, 4-[3-(2,6-dichlorobenzoyl)-8-fluoro-indolizin-1-yl]benzoic acid], the IC50 is below 500 nM.

As for `O=C(O)c1ccc(-c2c(F)c(C(=O)c3c(Cl)cccc3Cl)n3ccccc23)c(F)c1` [Example B-4, 4-[3-(2,6-dichlorobenzoyl)-2-fluoro-indolizin-1-yl]-3-fluoro-benzoic acid], the IC50 was below 500 nM.

In the case of “4-[3-(2-chloro-6-methyl-benzoyl)-5,6,7,8-tetrahydroindolizin-1-yl]benzoic acid [Example H-5]”, the IC50 is below 500 nM.

In turn, `CCOC(=O)c1ccc(-c2c(C)c(C(=O)c3c(Cl)cccc3Cl)n3ccccc23)c(F)c1` [Example C-1, ethyl 4-[3-(2,6-dichlorobenzoyl)-2-methyl-indolizin-1-yl]-3-fluoro-benzoate] displayed an IC50 below 500 nM.

`O=C(O)c1ccc(-c2c(F)c(C(=O)c3c(Cl)cccc3Cl)n3ccccc23)cc1` [Example B-2, 4-[3-(2,6-dichlorobenzoyl)-2-fluoro-indolizin-1-yl]benzoic acid] returned an IC50 below 500 nM.

`O=C(O)c1ccc(-c2cc(C(=O)c3c(Cl)cccc3C(F)(F)F)n3c2CCCC3)cc1` [Example H-1, 4-[3-[2-chloro-6-(trifluoromethyl)benzoyl]-5,6,7,8-tetrahydroindolizin-1-yl]benzoic acid] yielded an IC50 below 500 nM.

Molecule `COC1CN(C(=O)c2ccc3c(-c4ccc(C(=O)O)cc4)cc(C(=O)c4c(Cl)cccc4Cl)n3c2)C1` [Example D-14, 4-[3-(2,6-dichlorobenzoyl)-6-(3-methoxyazetidine-1-carbonyl)indolizin-1-yl]benzoic acid] yielded an IC50 below 500 nM.

The molecule “4-[3-(2,6-dichlorobenzoyl)-6-(4H-1,2,4-triazol-3-yl)indolizin-1-yl]benzoic acid [Example D-10]” came in with an IC50 below 500 nM.

“4-[3-(2,6-dichloro-3-fluoro-benzoyl)indolizin-1-yl]-N,N-dimethyl-benzamide [Example F-2]” registered an IC50 above 5000 nM.

For `O=C(O)c1ccc(-c2cc(Cc3c(F)cccc3Cl)n3ccccc23)cc1` [Example J-1, 4-[3-[(2-chloro-6-fluoro-phenyl)methyl]indolizin-1-yl]benzoic acid], the IC50 is below 500 nM.

“4-[3-(2,6-dibromobenzoyl)indolizin-1-yl]benzoic acid [Example A-53]” displayed an IC50 below 5000 nM.

Molecule `O=C(O)c1ccc(-c2cc(C(=O)c3c(Cl)cccc3Cl)n3cc(C(F)(F)F)ccc23)cc1` [Example A-63, 4-[3-(2,6-dichlorobenzoyl)-6-(trifluoromethyl)indolizin-1-yl]benzoic acid] registered an IC50 below 5000 nM.

`CCOC(=O)c1ccc(-c2cc(C(=O)c3c(F)cccc3F)n3cccc(F)c23)cc1` [Example A-45, ethyl 4-[3-(2,6-difluorobenzoyl)-8-fluoro-indolizin-1-yl]benzoate] showed a half-inhibitory concentration (IC50) below 500 nM.

`COC(=O)c1cc(F)c(-c2cc(C(=O)c3c(Cl)cccc3Cl)n3ccccc23)c(F)c1` [Example A-7, methyl 4-[3-(2,6-dichlorobenzoyl)indolizin-1-yl]-3,5-difluoro-benzoate] had an IC50 below 500 nM.

As for `CCOC(=O)c1ccc(-c2c(F)c(C(=O)c3c(Cl)ccc(F)c3Cl)n3ccccc23)cc1` [Example B-5, ethyl 4-[3-(2,6-dichloro-3-fluoro-benzoyl)-2-fluoro-indolizin-1-yl]benzoate], the half-inhibitory concentration (IC50) was below 500 nM.

For `Cc1c(-c2ccc(C(=O)O)cc2F)c2ccccn2c1C(=O)c1c(Cl)cccc1C(F)(F)F` [Example C-6, 4-[3-[2-chloro-6-(trifluoromethyl)benzoyl]-2-methyl-indolizin-1-yl]-3-fluoro-benzoic acid], the IC50 is below 500 nM.

Take `O=C(O)c1ccc(-c2cc(C(=O)c3c(Cl)cccc3C3CC3)n3ccccc23)c(F)c1` [Example A-29, 4-[3-(2-chloro-6-cyclopropyl-benzoyl)indolizin-1-yl]-3-fluoro-benzoic acid]: the IC50 is below 500 nM.

`CCOC(=O)c1ccc(-c2cc(C(=O)c3c(F)cccc3F)n3cccc(F)c23)c(F)c1` [Example A-46, ethyl 4-[3-(2,6-difluorobenzoyl)-8-fluoro-indolizin-1-yl]-3-fluoro-benzoate] gave an IC50 below 500 nM.

`O=C(O)c1ccc(-c2cc(C(=O)c3c(Cl)ccc(F)c3Cl)n3cccc(F)c23)c(F)c1` [Example A-49, 4-[3-(2,6-dichloro-3-fluoro-benzoyl)-8-fluoro-indolizin-1-yl]-3-fluoro-benzoic acid] registered an IC50 below 500 nM.

With `Cc1c(-c2ccc(C(=O)O)cc2F)c2n(c1C(=O)c1c(Cl)cccc1Cl)CCCC2` [Example H-2, 4-[3-(2,6-dichlorobenzoyl)-2-methyl-5,6,7,8-tetrahydroindolizin-1-yl]-3-fluoro-benzoic acid], the IC50 was below 500 nM.

The molecule `COC(=O)c1ccc(-c2cc(C(=O)c3c(Cl)cccc3Cl)n3cccc(F)c23)c(F)c1` [Example A-22, methyl 4-[3-(2,6-dichlorobenzoyl)-8-fluoro-indolizin-1-yl]-3-fluoro-benzoate] gave an IC50 below 500 nM.

With `COC(=O)c1ccc(-c2c(F)c(C(=O)c3c(Cl)cccc3Cl)n3ccccc23)c(F)c1` [Example B-3, methyl 4-[3-(2,6-dichlorobenzoyl)-2-fluoro-indolizin-1-yl]-3-fluoro-benzoate], the IC50 was below 500 nM.

With `O=C(O)c1ccc(-c2cc(C(=O)c3c(Cl)cccc3Cl)n3cc(C(=O)NCCO)ccc23)cc1` [Example D-7, 4-[3-(2,6-dichlorobenzoyl)-6-(2-hydroxyethylcarbamoyl)indolizin-1-yl]benzoic acid], the IC50 was above 5000 nM.

As to `O=C(O)c1ccc(-c2cc(C(=O)c3c(Cl)cccc3Cl)n3ccccc23)c(F)c1` [Example A-3, 4-[3-(2,6-dichlorobenzoyl)indolizin-1-yl]-3-fluoro-benzoic acid], the half-inhibitory concentration (IC50) was below 500 nM.
